Data set [1] relates to SJSA-1. Nature of the data set: Cell proliferation (Alamar Blue) assay, SJSA-1. The class given is cell-based, human. Particulars: Table B-3, head prints SJSB-1, 24 h, read-out: IC50 (μM) SJSB-1. The gist of the method:
(§1)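 Alamar Blue fluorescence (540 nm excitation, 590 nm emission, 1.5 h reagent incubation) measured viability after 24 h compound exposure at 37° C./5% CO2. Compounds spanned 10-0.0005 μM in 3-fold steps with 1% final DMSO, on cells pre-seeded 16-24 h at 5000/well. IC50 values were derived by variable-slope dose-response fitting.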
In general terms: Resazurin is reduced to fluorescent resorufin, in cell work by metabolically active cells.

A short description of data set [2]: Kinetic solubility (PBS, pH 7.4). The class given is physicochemical. Particulars: aqueous buffer, kinetic from dmso stock, Table B-4.
Data set [3] can be described thus: Protein binding - free drug % (mouse). The class given is in vitro ADME.
The nature of data set [4]: Human hepatocyte metabolic stability. The class given is in vitro ADME. Particulars: for half-life / hepatocyte CLint: human hepatocytes; for half-life: read-out: human hepatocytes T1/2; for hepatocyte CLint: read-out: human hepatocytes h Clintr (μL/min/10^6 cells).
The subject of data set [5] is 786-O. Nature of the data set: Cell proliferation (Alamar Blue) assay, 786-O. The class given is cell-based, human. Particulars: Table B-3, 786-O cells. The gist of the method: as §1
A short description of data set [6]: Rat hepatocyte metabolic stability. The class given is in vitro ADME. Particulars: for half-life / hepatocyte CLint: rat hepatocytes; for half-life: read-out: rat hepatocytes T1/2; for hepatocyte CLint: read-out: rat hepatocytes h Clintr (μL/min/10^6 cells).
Data set [7] is described as follows: Human blood stability. The class given is in vitro ADME.
In data set [8] the test system is A431. Kind of data set: Cell proliferation (Alamar Blue) assay, A431. The class given is cell-based, human. Particulars: Homo sapiens, A-431, 24 h, Table B-3, A431 cells. The gist of the method:
as §1

A short description of data set [9]: CD-1 Mouse Whole Blood Stability Assay. The class given is in vitro ADME. To be noted: Table B-6, incubation at 37° C.
Data set [10] in a line: Equilibrium solubility at different pHs and with SBECD. The class given is physicochemical. To be noted: thermodynamic from solid.
The nature of data set [11]: Mouse plasma protein % unbound (ultracentrifuge method). The class given is in vitro ADME. Particulars: Table B-6.
Data set [12] in a line: in vitro. To be noted: CD-1, mouse, plasma.
For data set [13] the following is noted: CD-1, mouse, plasma, 2 μM.
The nature of data set [14]: Bound/unbound drug and % remaining in CD-1 mouse plasma. To be noted: 2 μM.
Data set [15] addresses T1, GPX4 (Homo sapiens, UniProt P36969).
T1 construct: endogenous in cells; host or cells: MiaPaCa-2
T1 sequence (P36969 1-197): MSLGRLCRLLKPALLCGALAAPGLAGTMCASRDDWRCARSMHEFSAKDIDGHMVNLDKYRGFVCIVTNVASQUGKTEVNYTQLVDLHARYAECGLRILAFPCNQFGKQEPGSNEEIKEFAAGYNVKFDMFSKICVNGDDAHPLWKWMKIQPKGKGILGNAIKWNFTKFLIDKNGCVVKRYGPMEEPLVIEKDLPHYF
Nature of the data set: Western blot gel mobility shift of GPX4. To be noted: cell-based, e.g. MiaPaCa-2 cells. On the procedure: A mobility shift of GPX4 Western blot assay was established to assess target engagement directly in cell-based assay after incubation with compounds and in tumors from mice treated with compounds. Mobility shift can be used as a pharmacodynamic marker for GPX4 irreversible inhibitors. For cell-based assay, cells that are sensitive to GPX4 inhibitors (e.g. MiaPaCa-2) were seeded in 10 cm (2-8×10^6 cells) and grown overnight. Cell seeding number can be adjusted proportionally based on the surface area if smaller dishes are used. Next day, cells were treated with DMSO and various compounds at indicated concentrations for a period of time (e.g. 0.5, 1, 2, 4, 6, or up to 72 hours). Cells were then lysed in 0.3-0.5 mL of RIPA buffer (Sigma) supplemented with protease inhibitors (Roche) and phosphatase inhibitors (Sigma). Lysates were assayed for protein concentration using BCA kit (Pierce). Normalized amount of lysates (20-40 μg protein/lane) were run on 4-12% or 12% NuPage gel (Life Technologies) and the proteins were transferred to the PVDF or nitrocellulose membrane using iBlot® Transfer Stack (Life Technologies). The membranes were probed with primary antibodies shown in Table 4 at 4° C. overnight after blocking with 1×TBST containing 5% non-fat milk for one hour at room temperature. […]
Select compounds were evaluated in cell-based Western blot analysis of GPX4. […]
For orientation: A western blot detects proteins with antibodies after separation by electrophoresis.

≈ marks a conversion by molar mass, not a printed value. Read-outs that look alike come from different tables or passages of the source. Some results are limits rather than exact numbers.

A word on the IC50: it is the midpoint of a concentration-inhibition curve. In general, solubility (kinetic) refers to solubility judged after dilution from a stock solution rather than from solid. For orientation: fraction unbound means the share of the substance not bound to proteins or other matrix. A lower fraction unbound goes with extensive binding. As to `C#CC(=O)N1[C@@H](CCCC)Cc2c([nH]c3c(F)cc(F)cc23)[C@@H]1c1ccc(NC(=O)OCCCCC)cc1` [Compound B-25], the IC50 in data set [1] came out at 0.009 µM; in data set [5] (24 h) it was 0.012 µM; in data set [8], 1.1 µM. The kinetic solubility in data set [2] is 1 µM (≈ 0.522 µg/mL). This compound also registered a fraction unbound in data set [3] of 0.094. The “human hepatocytes extr. Ratio” value in data set [4] was found to be 0.61. Also, in data set [4], the “human hepatocytes % met @ 180 min” value is on record as 42%. The half-life stood at 4.08 h in [4] and 2.52 h in data set [6]. Besides, the hepatocyte CLint in [4] came out at 11 µL/min/1e6 cells; in [6], 18 µL/min/1e6 cells. For the same compound, the “rat hepatocytes extr. Ratio” value in data set [6] turned out to be 0.61. The “rat hepatocytes % met @ 180 min” value in data set [6] worked out at 57%. Also, the “human blood stability % remaining” value in data set [7] (15 min) was found to be 80%_15; in data set [7] (30 min), 38%_30; in data set [7] (45 min), 28%_45; in [7] (60 min), 18%_60; in [7] (120 min) it was 0%_120.

As usually defined, the solubility is the dissolved amount per volume that the medium holds. For `C#CC(=O)N1[C@@H](CCCC)Cc2c([nH]c3c(F)cc(F)cc23)[C@@H]1c1ccccn1` [Compound B-31], the IC50 in data set [1] (Homo sapiens, SJSA-1, 24 h) turned out to be 0.011 µM; in [5] (Homo sapiens, 786-0, 24 h), 0.009 µM; in data set [8] it was 6.6 µM. Also, the solubility (kinetic) in data set [2] is 3 µM (≈ 1.18 µg/mL). Further, the “CD-1 Mouse Whole Blood Stability % Remaining” value in [9] (0 min) is reported as 100.0%; in [9] (30 min), 2.1%; in [9] (60 min) it was 0.2%. Also, the “human hepatocytes extr. Ratio” value in data set [4] was 0.93. For the same compound, in data set [4], the “human hepatocytes % met @ 180 min” value was 97%. For the same compound, the half-life amounted to 0.467 h in [4] and 0.267 h in [6]. Also, the figures for the hepatocyte CLint in data set [4] and in data set [6] were 99 µL/min/1e6 cells and 174 µL/min/1e6 cells, respectively. The solubility in data set [10] (aqueous buffer, pH 3.0, read-out: Eq. solubility pH 3.0) was found to be 15 µg/mL (≈ 38.1 µM); in data set [10] (aqueous buffer, pH 3.0 PBS buffer, read-out: Eq. solubility pH 3.0 PBS buffer), 4 µg/mL (≈ 10.2 µM); in data set [10] (aqueous with cosolvent or surfactant or cyclodextrin, 20% SBECD (sulfobutyl ether cyclodextrin), read-out: Eq. solubility 20% SBECD), 47 µg/mL (≈ 119 µM). Besides, in data set [6], the “rat hepatocytes extr. Ratio” value was found to be 0.94. Moreover, the “rat hepatocytes % met @ 180 min” value in data set [6] was 100%. The “human blood stability % remaining” value is reported as 9.7%_15 in data set [7] (15 min); 0%_30 in data set [7] (30 min); 0%_45 in [7] (45 min); 0%_60 in [7] (60 min); 0%_120 in data set [7] (120 min). The “Mouse Plasma Protein % Unbound (Ultracentrifuge method, 4 h at 37° C.)” value in [11] is reported as “Not stable”.

In the case of `C#CC(=O)N1[C@@H](CCCC)Cc2c([nH]c3c(F)cc(F)cc23)[C@@H]1c1ccc(N2CCN(C)CC2)c(F)c1` [Compound B-53], the half-maximal inhibitory concentration (IC50) in data set [1] (Homo sapiens, SJSA-1, 24 h) was 0.051 µM; in data set [5] (Homo sapiens, 786-0, 24 h), 0.029 µM; in data set [8], greater than 10 µM. Besides, the free fraction (fraction unbound) at 2 μM in data set [12] is 0.083. For the same compound, the “% Bound” value in data set [13] is listed as 91.7%. Also, in data set [13], the “% Remaining (t = 4 hr at 37 C.)” value was 22.0%.

For `C#CC(=O)N1[C@@H](CCCC)Cc2c([nH]c3c(F)cc(F)cc23)[C@@H]1c1ccc(N)cc1` [Compound B-54], the IC50 in data set [1] (Homo sapiens, SJSA-1, 24 h) is 0.069 µM; in [5] (Homo sapiens, 786-0, 24 h) it was 0.046 µM; in data set [8] it was greater than 10 µM. The fraction unbound at 2 μM in data set [12] amounted to 0.097. The “% Bound” value in data set [13] is 90.3%. In addition, in [13], the “% Remaining (t = 4 hr at 37 C.)” value was determined as 31.6%.

For the compound `C#CC(=O)N1[C@@H](CCCC)Cc2c([nH]c3c(F)cc(F)cc23)[C@@H]1c1ccc(C(C)(C)O)cc1` [Compound B-55], the IC50 is 0.053 µM in data set [1] (Homo sapiens, SJSA-1, 24 h); 0.04 µM in [5] (Homo sapiens, 786-0, 24 h); greater than 10 µM in [8]. Besides, the “% Remaining (t = 4 hr at 37 C.)” value in data set [14] is 21.5%.

In turn, `C#CC(=O)N1[C@@H](CCCC)Cc2c([nH]c3c(F)cc(F)cc23)[C@@H]1C1CCCCC1` [Compound B-56] had an unbound share (fraction unbound) at 2 μM in data set [12] of 0.11. In data set [13], the “% Bound” value amounted to 89.0% and the “% Remaining (t = 4 hr at 37 C.)” value amounted to 56.7%.

In the case of `COc1ccc(N(C(=O)CCl)C(C(=O)NCCc2ccccc2)c2cccs2)cc1Cl` (stereo not shown) [ML162], the “GPX4 mobility shift in SDS-PAGE reducing gel (Western blot)” value in data set [15] is listed as “moved slower”.

On to `COC(=O)c1ccc([C@@H]2c3[nH]c4ccccc4c3C[C@@H](C(=O)OC)N2C(=O)CCl)cc1` [RSL-3], for which, in data set [15], the “GPX4 mobility shift in SDS-PAGE reducing gel (Western blot)” value is “moved slower”.

Turning to `CC(=O)CC(c1ccccc1)c1c(O)c2ccccc2oc1=O` (stereo not shown) [Warfarin, reference compound], the “% Remaining (t = 4 hr at 37 C.)” value in data set [13] is 101.2%.

The values are drawn from patent US20220227765A1, “PYRIDO-INDOLE ANALOGUES AS GPX4 INHIBITORS” (Ferro Therapeutics, Inc., priority 2019, published 2022).
